{"source": "patent EP0986299B1", "about": "“PLANT TRANSFORMATION METHODS” (Syngenta Participations AG, priority 1997, dated 1998)", "key": {"tobacco leaf discs": {"test_system": "tobacco leaf discs", "details": "silver nitrate during co-cultivation; LBA4404(GIGUP) 10^9 cells/ml"}, "maize embryos": {"test_system": "maize embryos", "details": "for Score (Callus initiation): transfer 2DG4 + AgNO3 +Cef, two weeks", "method": "Immature embryos (1.2 to 2.2 mm in length) are aseptically excised 14-15 days after pollination from surface-sterilized, greenhouse-grown ears and plated scutellum up on callus initiation medium, 2DG4 + 5 mg/l chloramben (2DG4-5Chl). 2DG4 medium is Duncan's medium modified to contain […] sucrose.\nEmbryos with callus response: • Immature embryos are sterilized as described above and plated on callus initiation medium (2DG4-5Chl) and cultured therein for 1 to 7 days. The resulting tissue is used as samples for inoculation.\n(§1) Strain A. tumefaciens LBA4404 (pAL4404, pSB1) is used in these experiments. pAL4404 is a disarmed helper plasmid. pSB1 is a wide host range plasmid that contains a region of homology to pGIGUP and a 15.2 kb Kpnl fragment from the virulence region of pTiBo542 (Ishida et al., 1996; High efficiency transformation of maize (Zea mays L.) mediated by Agrobacterium tumefaciens, Nature Biotechnology 14, 745-750). The introduction of the plasmid pGlGUP by electroporation into LBA4404(pAL4404, pSB1) results in a cointegration of pGlGUP and pSB1. The T-DNA of this plasmid contains a plant expressible PAT gene driven by the ubiquitin promoter to provide resistance to phosphinothricin and a gene for GUS with an intron in the N-terminal codon of the coding sequence driven by the Gelvin promoter. This intron-GUS gene expresses GUS activity in the plant cell but not in Agrobacterium.\n(§2) Agrobacterium is grown for 3 days on YP medium (5g/l yeast extract, 10g/l peptone, 5g/l NaCl, 15 g/l agar, pH 6.8) supplemented with 50 mg/l spectinomycin and 10 mg/l tetracycline. Bacteria are collected with a loop and suspended in N6 liquid medium at a density ranging from 10^9 to 5 10^9cells/ml. Agrobacterium cells can also be collected from an overnight culture in YP medium and resuspended in N6 liquid medium.\n(§3) Maize tissues prepared as described above are inoculated with Agrobacterium. Maize tissues are soaked in the bacterial suspension for 5-10 min and then plated on medium with or without silver nitrate (1 to 10 mg/l). Tissues are also inoculated with a 5 µl drop 10^9 to 5x10^9cells/ml of an Agrobacterium suspension placed on the top of the tissue. After inoculation, maize tissues are cultured in the dark at 25°C with or without silver nitrate in the medium (1 to 10 mg/l). 2 or 3 days after inoculation, tissues are transferred on the same medium supplemented with cefotaxime (250 mg/l) with or without silver nitrate."}, "maize type I callus": {"test_system": "maize type I callus", "details": "transfer 2DG4+ AgNO3 + Cef, 2 weeks", "method": "Embryos plated on callus initiation medium (2DG4 + 5 Chloramben) for 7 to 20 days give rise to callus. […] Resultant embryogenic callus are cut out of embryos and transferred to callus maintenance medium, 2DG4 + 0.5 mg/l (2,4-dichlorophenoxy) acetic acid (2,4-D) and used as samples for inoculation.\nType I callus obtained by the method described above can be maintained on the maintenance medium (2DG4 + 2,4 D 0.5 mg/l) and subcultured every 2 weeks.\nas §1, §2, §3"}, "cell line HE/89": {"test_system": "cell line HE/89", "experiment": "DNA fragmentation (DNA ladders) after Agrobacterium exposure, sensitivity to added agents", "assay_type": "cell-based", "details": "maize cells exposed to Agrobacterium, agent added", "method": "In order to determine the mechanism of cell death induced by Agrobacterium in maize tissues, genomic DNA is extracted from plant suspension cells harvested 24 or 48 hours after inoculation with Agrobacterium. Exposure to Agrobacterium causes DNA fragmentation in both maize lines, with a pattern characteristic of internucleosomal fragmentation, which is considered an early hallmark of programmed cell death. […] Furthermore, maize cells undergoing programmed cell death could not induce cell death of fresh maize embryogenic tissues.\nFurther evidence for Agrobacterium inducing DNA fragmentation is obtained by investigating the sensitivity of the process to Zn^2+ and Ca^2+. […] These characteristics are fully consistent with the effect of these divalent cations on the endogenous endonucleases responsible for DNA cleavage during apoptosis in animal system. The intensity of the ladder also is decreased by addition of cycloheximide, evidence that the process requires de novo gene expression. […] Fragmentation of DNA during apoptosis is also detected in situ by reagents that react with the exposed hydroxyls on the nucleosome units. 12 day old maize embryos from a proprietary elite line of Lancaster parentage are inoculated with LBA4404 and plated on DG4 medium supplemented with chloramben. Koziel, M.G., & al. 1993. Bio/Technology 11: 194-200. Apoptotic cells are detected by in situ staining with TACS-1 kit (Trevigen), which involves end labeling the DNA fragments by the klenow enzyme using dNTP conjugated to a detectable marker, giving a dark insoluble precipitate indicative of genomic fragmentation. Cullivier, O., Pirianov, G., Kleuser, B., Vanek, P.G., Coso, O.A., Gutking, J.S. and Spiegel, S. (1996) Nature 381, 800-803. Embryos are soaked in 3.7% formadehyde solution and processed as described by the manufacturer. To detect genomic DNA cleavage in situ, fixed embryos are treated with the TACS-1 kit. Fixed cross-sections are first treated with proteinase K for 5 min at room temperature and then dipped for 5 min into 2% hydrogen peroxide to remove endogenous peroxidase. […]"}}, "note": "Like-named read-outs stand apart in the source and are kept apart here.", "data": [{"smiles": "O=[N+]([O-])[O-].[Ag+]", "note": "[AgNO3, silver nitrate]", "values": [{"measurement": "GUS activity", "setting": "tobacco leaf discs", "value": "No significant decrease"}, {"measurement": "embryos able to produce embryogenic calli", "setting": "maize embryos; embryos plated on medium containing silver nitrate, inoculated with Agrobacterium", "value": "About 50%"}, {"measurement": "Score (Callus initiation)", "setting": "maize embryos; no pretreatment, co-inoculation 2DG4 + AgNO3, LBA4404 (GIGUP) 10^9 cells/ml", "value": 55, "unit": "%"}, {"measurement": "Score (Callus initiation)", "setting": "maize embryos; no pretreatment, co-inoculation 2DG4, LBA4404 (GIGUP) 10^9 cells/ml", "value": 30, "unit": "%"}, {"measurement": "Score (Callus initiation)", "setting": "maize embryos; pretreatment 2DG4 (6 days) + 1 day on 2DG4 + AgNO3, co-inoculation 2DG4 + AgNO3", "value": 88, "unit": "%"}, {"measurement": "Score (Callus initiation)", "setting": "maize embryos; pretreatment 2DG4 (6 days), co-inoculation 2DG4 + AgNO3", "value": 65, "unit": "%"}, {"measurement": "Score (Callus initiation)", "setting": "maize embryos; pretreatment 2DG4 + AgNO3 (1 day), co-inoculation 2DG4 + AgNO3", "value": 43, "unit": "%"}, {"measurement": "Score (Callus initiation)", "setting": "maize embryos; pretreatment 2DG4 + AgNO3(4 days), co-inoculation 2DG4 + AgNO3", "value": 27, "unit": "%"}, {"measurement": "Score (Survival of tissues)", "setting": "maize type I callus; 1/2 month old Type I callus, pretreatment 2DG4+AgNO3, co-inoculation 2DG4+AgNO3", "value": 95, "unit": "%"}, {"measurement": "Score (Survival of tissues)", "setting": "maize type I callus; 1/2 month old Type I callus, pretreatment 2DG4, co-inoculation 2DG4+AgNO3", "value": 75, "unit": "%"}, {"measurement": "Score (Survival of tissues)", "setting": "maize type I callus; 10 month-old Type I callus, pretreatment 2DG4+ AgNO3, co-inoculation 2DG4+ AgNO3", "value": 66, "unit": "%"}, {"measurement": "Score (Survival of tissues)", "setting": "maize type I callus; 10 month-old Type I callus, pretreatment 2DG4, co-inoculation 2DG4+ AgNO3", "value": 55, "unit": "%"}]}, {"smiles": "[Ca+2]", "note": "[Ca^2+]", "values": [{"measurement": "intensity of DNA ladders (genomic fragmentation)", "setting": "cell line HE/89", "value": "increased the intensity of DNA ladders"}]}, {"smiles": "[Zn+2]", "note": "[Zn^2+]", "values": [{"measurement": "intensity of DNA ladders (genomic fragmentation)", "setting": "cell line HE/89", "value": "markedly reduced genomic fragmentation"}]}, {"smiles": "CO/N=C(\\C(=O)N[C@@H]1C(=O)N2C(C(=O)O)=C(COC(C)=O)CS[C@H]12)c1csc(N)n1", "note": "[cefotaxime]", "values": [{"measurement": "necrosis of maize tissue", "setting": "HE/89", "value": "does not cause the maize tissue to become necrotic"}]}, {"smiles": "C[C@@H]1C[C@@H]([C@H](O)CC2CC(=O)NC(=O)C2)C(=O)[C@@H](C)C1", "note": "[cycloheximide]", "values": [{"measurement": "intensity of DNA ladders (genomic fragmentation)", "setting": "cell line HE/89", "value": "decreased"}]}]}
